Here are results for one compound from article PMC8636556, “Cloning, expression, purification and characterization of chitin deacetylase extremozyme from halophilic Bacillus aryabhattai B8W22” (3 Biotech, 2021).

For this assay, the target named is T1, BaCDA (Priestia aryabhattai, UniProt A0A7W3NGR0).
T1 construct: gene HNP21_005748
The assay is described as follows: biochemical. Particulars: read-out: Relative activity (%) / Ethylene glycol chitin.

T1 sequence (A0A7W3NGR0 1-254): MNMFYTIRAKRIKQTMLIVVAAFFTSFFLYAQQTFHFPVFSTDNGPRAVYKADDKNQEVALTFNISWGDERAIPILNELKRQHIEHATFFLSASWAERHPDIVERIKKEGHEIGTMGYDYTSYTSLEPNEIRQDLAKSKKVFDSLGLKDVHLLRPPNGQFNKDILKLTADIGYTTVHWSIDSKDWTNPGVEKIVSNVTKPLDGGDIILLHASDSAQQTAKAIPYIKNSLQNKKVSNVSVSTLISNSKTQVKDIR

For `CC(=O)O` [acetate], the activity at 10000 µM is 49.9 ± 3.89%.
